Assay results taken from the supplement of paper PMC10307832.

Tests used:
Assay in all cases: relative viability (nuclei count vs DMSO), 5 days (fraction); higher = more cells survive
[1] = compound: C#Cc1cccc(Nc2ncnc3cc(OC)c(OCCCCCCC(=O)NO)cc23)c1 [CUDC-101] + COc1cc2c(Oc3ccc(NC(=O)C4(C(=O)Nc5ccc(F)cc5)CC4)cc3F)ccnc2cc1OCCCN1CCOCC1 [Foretinib] (partner 0.25 µM)
Procedure, shortened: (§1)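 Dosing by pin tool came one day after lung cancer cell lines were seeded in 1536-well plates, using either one drug or a fixed anchor-drug dose plus five library-drug doses (not always all listed) in √10 steps. After 5 days, nuclei were counted on 4× images. Relative viability is treated-well nuclei count divided by vehicle-well nuclei count, and values are medians of duplicate plates.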

[2] = compound: C#Cc1cccc(Nc2ncnc3cc(OC)c(OCCCCCCC(=O)NO)cc23)c1 [CUDC-101] + Cc1cc(Nc2cc(N3CCN(C)CC3)nc(Sc3ccc(NC(=O)C4CC4)cc3)n2)n[nH]1 [Tozasertib] (partner 0.1 µM)
Procedure, shortened: as §1

[3] = compound: C#Cc1cccc(Nc2ncnc3cc(OC)c(OCCCCCCC(=O)NO)cc23)c1 [CUDC-101] + COc1cccc2cc(-c3nc([C@H]4CC[C@H](C(=O)O)CC4)n4ncnc(N)c34)[nH]c12 [OSI-027] (partner 0.5 µM)
Procedure, shortened: as §1

[4] = compound: COc1cc2/c(=N/c3ccc(Br)cc3F)nc[nH]c2cc1OCC1CCN(C)CC1 [Vandetanib] + O=C(c1cc(Cc2n[nH]c(=O)c3ccccc23)ccc1F)N1CCN(C(=O)C2CC2)CC1 [Olaparib] (partner 8 µM)
Procedure, shortened: as §1

Cell Line	relative viability ([1]; first compound 0.01 µM)	relative viability ([1]; first compound 0.03162 µM)	relative viability ([1]; first compound 0.1 µM)	relative viability ([1]; first compound 0.3162 µM)	relative viability ([1]; first compound 1 µM)	relative viability ([2]; first compound 0.01 µM)	relative viability ([2]; first compound 0.03162 µM)	relative viability ([2]; first compound 0.1 µM)	relative viability ([2]; first compound 0.3162 µM)	relative viability ([2]; first compound 1 µM)	relative viability ([3]; first compound 0.01 µM)	relative viability ([3]; first compound 0.03162 µM)	relative viability ([3]; first compound 0.1 µM)	relative viability ([3]; first compound 0.3162 µM)	relative viability ([3]; first compound 1 µM)	relative viability ([4]; first compound 0.02 µM)	relative viability ([4]; first compound 0.06325 µM)	relative viability ([4]; first compound 0.2 µM)	relative viability ([4]; first compound 0.6325 µM)	relative viability ([4]; first compound 2 µM)
NCI-H2023	0.759	0.672	0.836	0.764	0.615	0.336	0.337	0.363	0.328	0.293	0.433	0.461	0.432	0.488	0.325	0.464	0.473	0.484	0.466	0.479
ChaGo-K-1	0.916	0.875	0.945	0.894	0.709	0.216	0.214	0.246	0.238	0.208	0.527	0.579	0.541	0.538	0.43	0.415	0.427	0.161	0.411	0.438
NCI-H2126	1.25	0.971	1.08	1.26	1.01	0.892	0.79	0.807	0.867	0.743	0.678	0.659	0.662	0.668	0.508	0.883	0.888	0.818	0.923	0.88
RERF-LC-KJ	0.884	0.889	0.791	0.812	0.644	0.516	0.505	0.476	0.442	0.371	0.517	0.612	0.674	0.585	0.401	0.891	0.959	0.898	0.75	0.83
NCI-H3122	1.02	0.973	0.908	0.943	0.769	0.373	0.451	0.391	0.321	0.386	0.909	1.07	1.03	1.14	0.927	0.617	0.576	0.232	0.567	0.621
NCI-H322M	0.833	0.706	0.834	0.703	0.503	0.477	0.476	0.45	0.413	0.339	0.679	0.555	0.518	0.417	0.308	0.76	0.709	0.718	0.681	0.585
NCI-H647	1.16	1.11	1.14	1.21	0.877	0.235	0.338	0.266	0.223	0.211	0.68	0.668	0.783	0.596	0.383	0.626	0.633	0.547	0.502	0.454
EMC-BAC-2	1.12	0.982	0.954	1.03	0.56	0.312	0.208	0.251	0.209	0.199	0.405	0.371	0.401	0.315	0.263	0.509	0.478	0.498	0.492	0.531
PC-14	0.939	0.745	0.495	0.628	0.21	0.656	0.544	0.391	0.528	0.115	1.02	0.813	0.378	0.571	0.0565	0.25	0.248	0.26	0.217	0.117
201T	1.11	0.835	1.03	1.28	0.936	0.927	0.899	0.876	0.69	0.536	0.801	0.703	–	0.752	0.687	0.79	0.829	0.796	0.791	0.817
LXF-289	0.972	0.932	0.937	0.877	0.497	0.168	0.184	0.219	0.211	0.143	0.751	0.885	0.766	0.918	0.57	1.01	1.05	0.682	1	1
